pIC50: −log10 of the molar value.
Target: human MGAT-2 (Homo sapiens (Human), UniProt Q3SYC2)
Assay: MGAT LCMS Assay
Format: biochemical
Details: human recombinant MGAT-2 membranes expressed in Sf9 cells; LC/MS readout of diolein; read-out: h-MGAT LCMS IC50
Protocol: The MGAT enzyme reactions were performed in Corning FALCON® 96-well polypropylene plates, in a total volume of 60 μL of 50 mM potassium phosphate buffer pH 7.4, containing a final concentration of 100 μM 2-oleoylglycerol, 15 μM oleoyl-coenzyme A and […] human or mouse MGAT-2 or […] rat recombinant MGAT-2 membranes expressed in Sf9 cells. Assay plates were run through a fully automated robotics system and shaken for 5 seconds every minute for a total 10 minutes. The reactions were then quenched with 120 μL of ice cold methanol containing 1 μg/mL 1,2-distearoyl-rac-glycerol as the internal standard. Plates were shaken for 2 minutes and spun down to remove protein precipitation. After the spin, samples were transferred to LC/MS compatible PCR plates. For LC/MS analysis, a ThermoFisher Surveyor pump, utilizing a Waters SYMMETRY® C8, 50×2.1 mm column, was used for the chromatography of enzyme products. The buffer system consists of 0.1% formic acid in water with a mobile phase consisting 0.1% formic acid in methanol. The shallow gradient is 90-100% mobile phase in 0.2 min with a total run time of 2.3 min. […]
The exemplified Examples disclosed below were tested in the MGAT2 in vitro assays described above and were found having MGAT2 inhibitory activity. Table 1 below lists human MGAT2 IC50 values measured for the following examples.

Sequence of human MGAT-2 (Q3SYC2 whole entry): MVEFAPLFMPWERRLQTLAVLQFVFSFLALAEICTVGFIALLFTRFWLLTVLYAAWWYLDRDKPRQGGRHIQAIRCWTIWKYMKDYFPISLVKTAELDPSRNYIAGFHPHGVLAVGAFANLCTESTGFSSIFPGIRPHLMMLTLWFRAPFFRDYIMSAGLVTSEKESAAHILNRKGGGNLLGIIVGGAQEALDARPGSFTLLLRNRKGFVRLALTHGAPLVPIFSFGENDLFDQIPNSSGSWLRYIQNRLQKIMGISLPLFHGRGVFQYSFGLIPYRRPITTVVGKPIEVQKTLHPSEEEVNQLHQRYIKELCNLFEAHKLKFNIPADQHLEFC

Structure (SMILES): O=C1N[C@@](c2ccc(OCCCC(F)(F)F)cc2F)(C(F)(F)F)CC(c2ncc(C3CC3)s2)=C1n1nn[nH]c1=O [Example 22, (S)-4-(5-cyclopropylthiazol-2-yl)-6-(2-fluoro-4-(4,4,4-trifluorobutoxy)phenyl)-3-(5-oxo-4,5-dihydro-1H-tetrazol-1-yl)-6-(trifluoromethyl)-5,6-dihydropyridin-2(1H)-one]
- pIC50: 8.70

Reference: patent US11479538B2, “Tetrazolone-substituted dihydropyridinone MGAT2 inhibitors” (BRISTOL-MYERS SQUIBB COMPANY, priority 2014, dated 2022)
